Source: patent US20190224251A1, “METHODS OF DIFFERENTIATING STEM CELLS INTO ENDODERM” (MEMORIAL SLOAN-KETTERING CANCER CENTER, priority 2016, published 2019)
“Also recorded” adds a separate entry of the source. Values belong to the molecule of their own block, whether it stands above or below them.

Key:
[1] = test system: NKX2.1 expressing lung progenitor cells; test: Lung progenitor differentiation after transient JNK inhibition during DE differentiation; format: cell-based, human; details: flow cytometry
Description: (§1) An improved protocol suitable for endoderm derivative lineage differentiation was developed. The improved protocol dispensed with the use of serum and inhibited JNK on the first day of definitive endoderm differentiation (FIG. 13A).

[2] = test system: DE cells differentiated from human ES cells; test: Endoderm differentiation in high or low Activin A condition, flow cytometry (CXCR4/SOX17, GATA6/GATA4) and RT-qPCR; format: cell-based; details: either high or low Activin A condition
Method: Human ES or iPS cells were cultured in E8 medium and routinely passed by EDTA. When cells reach to 80-90% confluences, cells were treated with TrpLE Select and get single cell for passaging. Typically, 0.15 millions human ES or iPS cells were plated in one well of the six-well plates with ROCK inhibitor 10 uM in 2 ML E8 media. For the H1 line, it was typically plated 0.1 million cells to accommodate the higher proliferation rate. […]
(§2) Cells were dissociated using TrypLE Select and resuspended in FACS buffer (5% FBS, 5 mM EDTA in PBS). […] After washing with permeabilization buffer, cells were resuspended in FACS buffer, and samples were analyzed using BD LSRfortessa or BD LSRII. […]
Cell pellets were lysed in TRIzol (Thermo Fisher Scientific, 15596018). […] Quantitative real-time PCR was performed in triplicate using ABsolute Blue QPCR SYBR Green Mix with low ROX (Thermo Scientific, #AB4322B) on the ABI PRISM® 7500 Real Time PCR System (Applied Biosystems) using the following protocol: 15 minutes at 95° C. followed by 40 cycles of 15 seconds at 95° C., 30 seconds at 58° C., and 30 seconds at 72° C. The signal was detected at 72° C.

HUES8 SOX17GFP/+ cells = test: Definitive endoderm (DE) differentiation, flow cytometry of SOX17-GFP reporter; format: cell-based, human; details: for formation of SOX17+ endoderm cells: Activin A and CHIR-99021 treatment, efficiency sensitive to dosages
Method: (§3) Human ES or iPS cells were cultured in E8 medium and routinely passed by EDTA. When cells reach to 80-90% confluences, cells were treated with TrpLE Select and get single cell for passaging. Typically, 0.15 millions human ES or iPS cells were plated in one well of the six-well plates with ROCK inhibitor 10 uM in 2 ML E8 media. For the H1 line, it was typically plated 0.1 million cells to accommodate the higher proliferation rate. Twenty-four hours later, cells were washed with PBS once and add Day0 media (Advanced RPMI (Thermo Fisher Scientific, 12633012) with penicillin/streptomycin (Thermo Fisher Scientific, 15070063), GlutaMAX (Thermo Fisher Scientific, 35050079), 0.003% BSA (Thermo Fisher Scientific, 15260037), […] CHIR-99021 (Tocris, 4423) and 100 ng/ml Activin A (PeperoTech, 12014E)). Over the next 2 days, cells were changed to Day2 media (Advanced RPMI with penicillin/streptomycin, GlutaMAX, 0.2% FBS and 100 ng/ml Activin A). […] JNK inhibitor JNK-IN-8 (Selleckchem, S4901) was used during differentiation when indicated. Routinely, around 60-80% SOX17+ cells were obtained in 3 days.
Cells were dissociated using TrypLE Select and resuspended in FACS buffer (5% FBS, 5 mM EDTA in PBS). First, cells were stained with surface antibody (CXCR4-APC) with LIVE/DEAD violet dye (Molecular Probe, L34955, 1:1,000) for 30 minutes at 4° C. After washing, […] After washing with FACS buffer, cells were fixed and permeabilized in 1× fixation/permeabilization buffer (eBioscience, 00-5523-00) for 30 minutes at 4° C. After fixation and permeabilization, cells were stained with intracellular conjugated antibody (SOX17-PE, GATA6-PE, GATA4-Alexa-647) in permeabilization buffer (eBioscience, 00-5523-00) for 30 minutes at 4° C. After washing with permeabilization buffer, cells were resuspended in FACS buffer, and samples were analyzed using BD LSRfortessa or BD LSRII. Flow cytometry analysis and figures were generated in Flowjo 10.

H1 cell line = test: Definitive endoderm (DE) differentiation, flow cytometry of SOX17; format: cell-based, human
Method: as §3, §2

[3] = test system: HUES6 ES cells, and BJ and CV iPS cells; test: Definitive endoderm differentiation in further ES and iPS cell lines, flow cytometry of SOX17; format: cell-based, human; details: without inhibitor efficiency 60-80%
Method: as §3, §2

[4] = test system: SOX17 and GATA6 enhancers; test: ChIP-qPCR of SMAD2/3 and JUN binding at the SOX17 and GATA6 enhancers; format: cell-based, human; details: DE cells at Day 2
Method: Definitive endoderm cells at Day 2 were collected for chromatin immunoprecipitation. Cells were cross-linked with 1% formaldehyde (Sigma, F1635) at 37° C. for 15 min and quenched with 0.125 M glycine for 5 min at room temperature. ChIP was performed as previously described 52. Samples were incubated with […] of antibody bound to […] Dynabeads protein G (Thermo Fisher Scientific, 1004D), then incubated overnight at 4° C. 2% pre-cleared chromatin prior to primary antibody addition was kept as input DNA. Magnetic beads were washed and chromatin was eluted, and reverse cross-linked ChIP DNA was dissolved in 10 mM Tris pH 8.0 buffer for further analysis. For ChIP-qPCR, immunoprecipitated DNA was analyzed by qPCR, and the amplification product was expressed as percentage of the 2% input.

[5] = test system: definitive endoderm (SOX17 and CXCR4 expression); test: Serum-free DE differentiation with JNK inhibition on the first day; format: cell-based, human; details: one day of JNK inhibition, no serum
Description: as §1

[6] = test system: NKX6.1 and PDX1 expressing pancreatic progenitor cells; test: Pancreatic progenitor differentiation after transient JNK inhibition during DE differentiation; format: cell-based, human; details: flow cytometry and immunostaining
Description: as §1

JUN phosphorylation = test: Western blot of JUN phosphorylation in DE cells; format: cell-based, human
Method: (§4) Cell pellets were quickly snap frozen in liquid nitrogen and lysated in lysis buffer (Cell Signaling Technology, 9803) with proteinase/phosphatase inhibitors (Cell Signaling Technology, 5872) and 1 mm PMSF (MP Biomedicals, ICN19538105). Proteins were pre-cleared by centrifugation at 14,000 g 4° C. for 10 minutes. Protein concentration was determined by Bradford assay (Bio-Rad, 500-0202). Equal amounts of protein were loaded into Bis-Tris 10% gel (Novex, NP0301BOX) and transferred to nitrocellulose membranes (Novex, LC2001). Membranes were blocked with 5% milk (for non-phosphorylated proteins) or 5% BSA (for phosphorylated proteins). Primary antibody was incubated overnight at 4° C. Membranes were washed with TBST 3 times for 10 minutes each and incubated with secondary antibody for 1 hour at R.T. Membrane were washed with TBST 3 times for 10 minutes each. ECL western blotting detection reagents (Amersham, RPN2236 and Thermo Fisher Scientific, 32106) were used to visualize the protein bands.

[7] = test system: C-terminal SMAD2 phosphorylation (Ser465/467) and JUN phosphorylation; test: Western blotting for signaling crosstalk between Nodal and JNK pathways; format: cell-based, human; details: 15 minutes and 1 hour after initiating differentiation
Method: as §4

binding of JUN to the SOX17 and GATA6 enhancers [4]: diminished | binding of SMAD2/3 to the SOX17 and GATA6 enhancers [4]: enhanced
Molecule: Cc1cc(NC(=O)c2cccc(NC(=O)/C=C/CN(C)C)c2)ccc1Nc1nccc(-c2cccnc2)n1 [JNK-IN-8]
number of NKX2.1 expressing lung progenitor cells [1]: significantly increased | efficiency of endoderm differentiation based on flow cytometry [2]: greater than 90% | levels of endoderm gene expression from RT-qPCR [2]: increased | DE differentiation (SOX17GFP+ cells) (HUES8 SOX17GFP/+ cells; 1 μm JNK-IN-8, 3 days, HUES8-SOX17GFP, DMSO control ~79%): ~98% | requirement for Activin A in Activin A dose titration (HUES8 SOX17GFP/+ cells; HUES8 SOX17GFP/+ cells): did not omit the requirement for Activin A | SOX17+ cells formed (HUES8 SOX17GFP/+ cells; JNK-IN-8 with 20 ng/ml Activin A, HUES8 SOX17GFP/+ cells): ~95% | DE differentiation (SOX17+ cells) (H1 cell line; 1 μm JNK-IN-8, 3 days, H1, DMSO control ~66%): ~96% | effect on DE differentiation at Day 2 versus Day 3 (H1 cell line; 1 μm JNK-IN-8, H1 and HUES8-SOX17GFP): stronger at Day 2 | endoderm differentiation efficiency [3]: significantly improved | induction of definitive endoderm (SOX17 and CXCR4 expression) [5]: sufficient to induce differentiation of definitive endoderm | number of NKX6.1 and PDX1 expressing pancreatic progenitor cells [6]: significantly increased | phosphorylation of JUN (Western blot) (JUN phosphorylation; JNK-IN-8 1 μm, H1-derived DE cells at day 3): undetectable; also recorded: inhibition of JUN phosphorylation | total JUN level (Western blot) (JUN phosphorylation; JNK-IN-8 treated cells): down-regulated | C-terminal SMAD2 phosphorylation (at Ser465/467) [7]: did not change | JUN phosphorylation (Western blot) [7]: inhibited

Molecule: NC(=O)c1ccc(-c2nc(-c3ccc4c(c3)OCO4)c(-c3ccccn3)[nH]2)cc1 [SB431542]
C-terminal SMAD2 phosphorylation (at Ser465/467) [7]: blocked | JUN phosphorylation (Western blot) [7]: did not affect

Molecule: Cc1c[nH]c(-c2cnc(NCCNc3ccc(C#N)cn3)nc2-c2ccc(Cl)cc2Cl)n1 [CHIR-99021, 6-(2-(4-(2,4-dichlorophenyl)-5-(4-methyl-1H-imidazol-2-yl)pyrimidin-2-ylamino)ethylamino)nicotinonitrile]
formation of SOX17+ endoderm cells (HUES8 SOX17GFP/+ cells): required | outcome of prolonged WNT activation (HUES8 SOX17GFP/+ cells; prolonged CHIR-99021 treatment): formation of CXCR4+SOX17− cells

B1: Activin A: TGF-β superfamily member that mimics the activity of Nodal (protein, UniProt P08476 311-426, looked up)
Inhibin beta A chain: GLECDGKVNICCKKQFFVSFKDIGWNDWIIAPSGYHANYCEGECPSHIAGTSGSSLSFHSTVINHYRMRGHSPFANLKSCCVPTKLRPMSMLYYDDGQNIIKKDIQNMIVEECGCS
modifications: Inhibin beta A chain
formation of SOX17+ endoderm cells (HUES8 SOX17GFP/+ cells): required | C-terminal SMAD2 phosphorylation (at Ser465/467) [7]: induces
